Measurements reported in US7064217B2 (University of Virginia Patent Foundation, priority 2001, dated 2006).
“Also recorded” adds a separate entry of the source. Read-outs that look alike come from different tables or passages of the source.

Assays:
Type in all cases: biochemical
zS1P1 = molecular target: T1, zS1P1 (Danio rerio, UniProt Q9DDK4); test: [γ-35S]GTP binding, zebrafish S1P1 overexpressed in rat RH-7777 cells; conditions: GTPγS binding, zebrafish S1P1 in rat RH-7777
T1 construct: expressed in transfected cells; host or cells: rat hepatoma RH-7777
T1 sequence (Q9DDK4 1-362): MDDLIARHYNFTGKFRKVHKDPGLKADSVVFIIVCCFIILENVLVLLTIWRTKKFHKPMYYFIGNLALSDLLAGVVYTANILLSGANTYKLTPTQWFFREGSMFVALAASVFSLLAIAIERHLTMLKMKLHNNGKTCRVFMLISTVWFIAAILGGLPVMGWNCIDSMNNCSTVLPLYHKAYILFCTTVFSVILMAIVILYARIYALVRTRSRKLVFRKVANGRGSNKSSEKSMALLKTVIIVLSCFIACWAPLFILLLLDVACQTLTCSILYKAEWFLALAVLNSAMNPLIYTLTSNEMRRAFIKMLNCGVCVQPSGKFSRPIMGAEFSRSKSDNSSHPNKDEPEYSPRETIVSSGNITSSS
Procedure: (§1) After incubating for 30 min at 30° C., bound radionuclide was separated from free by filtration through Whatman GF/C paper using a Brandel Cell Harvester (Gaithersburg, Md.).
Rat hepatoma RH7777 cell monolayers were transfected with human or mouse S1P5/pCR3.1 DNA using the calcium phosphate precipitate method, and clonal populations expressing the neomycin phosphotransferase gene were selected by addition of Ge-neticin (G418) to the culture medium. The RH7777 cells were grown in monolayers at 37° C. in a 5%CO2/95% air atmosphere in growth medium consisting of 90% MEM, 10% fetal bovine serum, 2 mM glutamine, and 1 mM sodium pyruvate.
(§2) Assay of cAMP accumulation was performed as described previously (See Im et al., J. Biol. Chem. 275, 14281–14286 (2000), the disclosure of which is incorporated herein). Assays were conducted on populations of 5×10^5 cells stimulated with 1 uM forskolin in the presence of the phosphodiesterase inhibitor […] (IBMX, 1 mM) for 15 min. cAMP was measured by automated radioimmunoassay. The GTPγS studies were performed using zebrafish S1P1 overexpressed rat RH-7777 and human hS1P1, hS1P2, hS1P3 and hS1P5 overexpressed human HEK293 cells.

hS1P1 = molecular target: T2, hS1P1 (Homo sapiens, UniProt P21453); test: [γ-35S]GTP binding to HEK293T cell membranes, hS1P1; conditions: GTPγS binding; for EC50: read-out: EC50 Values (nM) for S1P Analogues at Recombinant S1P Receptors, hS1P1, HEK293
T2 construct: expressed in transfected cells; host or cells: HEK293T
T2 sequence (P21453 whole entry): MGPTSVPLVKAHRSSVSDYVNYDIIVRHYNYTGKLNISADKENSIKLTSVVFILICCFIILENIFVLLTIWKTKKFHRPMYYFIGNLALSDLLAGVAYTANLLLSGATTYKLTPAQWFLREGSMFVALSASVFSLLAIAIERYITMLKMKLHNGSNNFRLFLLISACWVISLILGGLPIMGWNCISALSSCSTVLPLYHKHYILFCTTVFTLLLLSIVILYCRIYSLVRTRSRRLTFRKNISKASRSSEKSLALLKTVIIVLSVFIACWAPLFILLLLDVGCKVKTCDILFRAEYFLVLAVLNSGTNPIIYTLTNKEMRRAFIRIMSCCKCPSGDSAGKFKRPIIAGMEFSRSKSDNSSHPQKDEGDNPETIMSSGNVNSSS
Procedure: (§3) Human or mouse S1P5 DNA was mixed with an equal amount of DNA encoding a rat Gi2R protein as well as DNAs encoding cow β1 and γ2 proteins and used to transfect monolayers of HEK293T cells using the calcium phosphate precipitate method. After 60 h, cells were harvested, and microsomes were prepared, aliquoted, and stored at −70° C. until use.
as §1, §2
(§4) An additional series of compounds was tested using the GTPγS binding assay described in Example 2 and in Im et al., J. Biol. Chem. 275, 14281–14286 (2000), the disclosure of which is incorporated herein).

hS1P3 = molecular target: T3, hS1P3 (Homo sapiens, UniProt Q99500); test: [γ-35S]GTP binding to HEK293T cell membranes, hS1P3; conditions: GTPγS binding; for EC50: read-out: EC50 Values (nM) for S1P Analogues at Recombinant S1P Receptors, hS1P3, HEK293; for activity at the S1P3 receptor (inverse agonism/antagonism or agonism): Example 3 series
T3 construct: expressed in transfected cells; host or cells: HEK293T
T3 sequence (Q99500 whole entry): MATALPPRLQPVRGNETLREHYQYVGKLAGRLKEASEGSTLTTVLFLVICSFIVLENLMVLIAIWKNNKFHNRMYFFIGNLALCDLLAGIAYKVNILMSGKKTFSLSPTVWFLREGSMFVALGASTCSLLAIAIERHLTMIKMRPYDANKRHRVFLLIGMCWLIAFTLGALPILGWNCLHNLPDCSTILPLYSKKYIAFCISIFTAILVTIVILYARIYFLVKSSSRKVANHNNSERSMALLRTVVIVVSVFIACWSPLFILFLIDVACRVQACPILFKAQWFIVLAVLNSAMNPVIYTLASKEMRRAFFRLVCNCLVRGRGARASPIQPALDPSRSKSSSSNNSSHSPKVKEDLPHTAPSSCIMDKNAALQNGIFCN
Procedure: as §3, §1, §2, §4

hS1P2 = molecular target: T4, hS1P2 (Homo sapiens, UniProt O95136); test: [γ-35S]GTP binding to HEK293T cell membranes, hS1P2; conditions: GTPγS binding; for EC50: read-out: EC50 Values (nM) for S1P Analogues at Recombinant S1P Receptors, hS1P2, HEK293; for activity at the S1P2 receptor: Example 3 series
T4 construct: expressed in transfected cells; host or cells: HEK293T
T4 sequence (O95136 whole entry): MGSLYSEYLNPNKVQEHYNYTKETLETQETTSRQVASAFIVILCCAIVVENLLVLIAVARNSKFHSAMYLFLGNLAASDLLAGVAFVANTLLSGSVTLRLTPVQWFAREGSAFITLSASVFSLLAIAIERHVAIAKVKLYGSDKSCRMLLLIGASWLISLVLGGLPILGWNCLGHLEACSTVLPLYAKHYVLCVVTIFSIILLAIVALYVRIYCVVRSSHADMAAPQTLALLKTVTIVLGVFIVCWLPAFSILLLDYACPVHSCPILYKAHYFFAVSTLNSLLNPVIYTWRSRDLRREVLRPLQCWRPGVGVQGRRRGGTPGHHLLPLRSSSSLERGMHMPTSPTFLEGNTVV
Procedure: as §3, §1, §2, §4

hS1P5 = molecular target: T5, hS1P5 (Homo sapiens, UniProt Q9H228); test: [γ-35S]GTP binding to HEK293T cell membranes, hS1P5; conditions: read-out: EC50 Values (nM) for S1P Analogues at Recombinant S1P Receptors, hS1P5; GTPγS binding; HEK293
T5 construct: expressed in transfected cells; host or cells: HEK293T
T5 sequence (Q9H228 whole entry): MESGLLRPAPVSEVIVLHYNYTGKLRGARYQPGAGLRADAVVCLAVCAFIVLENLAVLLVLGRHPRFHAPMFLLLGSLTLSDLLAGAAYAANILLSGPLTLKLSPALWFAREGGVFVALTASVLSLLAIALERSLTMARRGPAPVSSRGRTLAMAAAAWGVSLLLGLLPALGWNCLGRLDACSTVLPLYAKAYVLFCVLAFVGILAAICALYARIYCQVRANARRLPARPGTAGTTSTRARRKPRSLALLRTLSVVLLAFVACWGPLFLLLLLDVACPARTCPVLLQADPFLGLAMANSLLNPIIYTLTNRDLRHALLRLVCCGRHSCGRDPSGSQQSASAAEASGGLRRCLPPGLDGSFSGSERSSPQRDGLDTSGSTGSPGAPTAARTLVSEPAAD
Procedure: as §3, §1, §2, §4

mS1P5 = molecular target: T6, mS1P5 (Mus musculus, UniProt Q91X56); test: [γ-35S]GTP binding to HEK293T cell membranes, mS1P5; conditions: GTPγS binding
T6 construct: expressed in transfected cells; host or cells: HEK293T
T6 sequence (Q91X56 whole entry): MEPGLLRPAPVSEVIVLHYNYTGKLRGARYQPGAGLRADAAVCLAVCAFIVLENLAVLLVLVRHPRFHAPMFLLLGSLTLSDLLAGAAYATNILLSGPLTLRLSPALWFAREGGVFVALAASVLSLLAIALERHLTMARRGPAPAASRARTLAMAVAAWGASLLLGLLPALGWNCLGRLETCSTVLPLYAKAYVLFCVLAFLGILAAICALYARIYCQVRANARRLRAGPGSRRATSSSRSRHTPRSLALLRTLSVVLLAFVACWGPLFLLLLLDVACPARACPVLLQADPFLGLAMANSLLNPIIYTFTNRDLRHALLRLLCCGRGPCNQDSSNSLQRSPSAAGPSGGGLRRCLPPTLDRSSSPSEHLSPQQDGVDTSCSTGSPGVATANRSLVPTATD
Procedure: as §3, §1, §2

hS1P4 = molecular target: T7, hS1P4 (Homo sapiens, UniProt O95977); test: [γ-35S]GTP binding to HEK293T cell membranes, hS1P4; conditions: GTPγS binding, primary alcohols
T7 construct: expressed in transfected cells; host or cells: HEK293T
T7 sequence (O95977 1-384): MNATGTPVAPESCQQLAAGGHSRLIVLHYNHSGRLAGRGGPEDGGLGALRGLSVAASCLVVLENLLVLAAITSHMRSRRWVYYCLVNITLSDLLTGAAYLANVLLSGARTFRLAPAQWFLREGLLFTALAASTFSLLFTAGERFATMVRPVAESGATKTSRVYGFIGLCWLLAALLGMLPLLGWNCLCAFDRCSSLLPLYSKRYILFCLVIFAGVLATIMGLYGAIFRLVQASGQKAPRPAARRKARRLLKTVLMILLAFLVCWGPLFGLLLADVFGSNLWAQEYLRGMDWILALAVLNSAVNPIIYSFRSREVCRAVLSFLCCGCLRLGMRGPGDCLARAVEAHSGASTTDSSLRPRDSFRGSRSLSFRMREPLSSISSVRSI
Procedure: as §1, §4

S1P receptors = test: [γ-35S]GTP binding assay, statements across the recombinant S1P receptors tested; conditions: GTPγS binding
Procedure: as §3, §1, §2, §4

[1] = read-out: EC50 Values (nM) for S1P Analogues at Recombinant S1P Receptors, zS1P1
[2] = read-out: EC50 Values (nM) for S1P Analogues at Recombinant S1P Receptors, mS1P5

CCCCCCCCCCCCCCOC(=O)[C@@H](N)COP(=O)(O)O.O=C(O)C(F)(F)F [VPC22053]
EC50 (zS1P1; [1]): > 5000 nM | loss of potency relative to enantiomer VPC22135 at S1P1 receptor (hS1P1): more than 1 log order | EC50 (hS1P1): 397 nM | loss of potency relative to enantiomer VPC22135 at S1P3 receptor (hS1P3): more than 1 log order | EC50 (hS1P3): 862 nM | EC50 (hS1P2): 2680 nM | EC50 (hS1P5): 1610 nM | EC50 (mS1P5; [2]): 2010 nM

CCCCCCCCCCCCCCNC(=O)[C@H](N)COP(=O)(O)O [VPC22135]
EC50 (zS1P1): 1620 nM | potency relative to S1P at human S1P1 receptor (hS1P1): approached the potency of S1P | EC50 (hS1P1): 12.7 nM | potency relative to S1P at human S1P3 receptor (hS1P3): approached the potency of S1P | EC50 (hS1P3): 50.8 nM | EC50 (hS1P2): 2110 nM | EC50 (mS1P5): 1820 nM

CCCCCCCCc1cccc(NC(=O)[C@H](N)COP(=O)(O)O)c1 [VPC23019]
activity at S1P1 (antagonism) (hS1P1; competition with S1P): antagonism | activity at the S1P3 receptor (inverse agonism/antagonism or agonism) (hS1P3): inverse agonists | activity at the S1P2 receptor (hS1P2): failed to show significant activity; also recorded: inactive

CCCCCCCCCCCCCCNC(=O)[C@@H](N)COP(=O)(O)O [VPC22051]
EC50 (zS1P1; [1]): > 5000 nM | EC50 (hS1P1): 322 nM | EC50 (hS1P3): 602 nM | EC50 (hS1P2): 2760 nM | EC50 (hS1P5): > 5000 nM | EC50 (mS1P5; [2]): > 5000 nM

CCCCCCCCCCc1cccc(NC(=O)[C@H](N)CO)c1.O=C(O)C(F)(F)F [VPC23065]
activity at the S1P2 receptor (hS1P2): failed to show significant activity; also recorded: inactive | agonist activity at the S1P4 receptor (hS1P4): good agonist activity | agonist activity at S1P receptors (S1P receptors): significant agonist activity

CCCCCCCCCCCCNC(=O)[C@@H](N)COP(=O)(O)O [VPC22041]
EC50 (zS1P1): 2050 nM | EC50 (hS1P1): 598 nM | EC50 (hS1P3): 845 nM | EC50 (hS1P2): 973 nM | EC50 (hS1P5): 646 nM | EC50 (mS1P5): > 5000 nM

CCCCCCCCCc1cccc(NC(=O)[C@H](N)COP(=O)(O)O)c1.O=C(O)C(F)(F)F [VPC23079]
activity at the S1P3 receptor (inverse agonism/antagonism or agonism) (hS1P3): agonism | activity at the S1P2 receptor (hS1P2): failed to show significant activity; also recorded: inactive

CCCCCCCCCCCCCCCCNC(=O)[C@@H](N)COP(=O)(O)O [VPC22063]
EC50 (zS1P1): > 5000 nM | EC50 (hS1P1): 1800 nM | EC50 (hS1P3): 879 nM | EC50 (hS1P5): 1220 nM | EC50 (mS1P5): 1330 nM

CCCCCCCCCc1cccc(NC(=O)[C@H](N)CO)c1.O=C(O)C(F)(F)F [VPC23075]
activity at the S1P2 receptor (hS1P2): failed to show significant activity; also recorded: inactive | agonist activity at the S1P4 receptor (hS1P4): good agonist activity | agonist activity at S1P receptors (S1P receptors): significant agonist activity

CCCCCCCCCCCCC/C=C/[C@@H](O)[C@@H](N)COP(=O)(O)O [Compound S1P, Sphingosine-1-phosphate, reference compound]
EC50 (zS1P1): 54.6 nM | EC50 (hS1P1): 0.9 nM | EC50 (hS1P3): 1.1 nM | EC50 (mS1P5): 12.7 nM

CCCCCCCCc1ccccc1NC(=O)[C@H](N)COP(=O)(O)O [VPC23089]
activity at the S1P3 receptor (inverse agonism/antagonism or agonism) (hS1P3): inverse agonists | activity at the S1P2 receptor (hS1P2): failed to show significant activity; also recorded: inactive

CCCCCCCCCCc1cccc(NC(=O)[C@H](N)COP(=O)(O)O)c1.O=C(O)C(F)(F)F [VPC23069]
activity at the S1P3 receptor (inverse agonism/antagonism or agonism) (hS1P3): agonism | activity at the S1P2 receptor (hS1P2): failed to show significant activity; also recorded: inactive

CCCCCCCCc1ccccc1NC(=O)[C@H](N)CO.O=C(O)C(F)(F)F [VPC23087]
activity at the S1P2 receptor (hS1P2): failed to show significant activity; also recorded: inactive | agonist activity at the S1P4 receptor (hS1P4): good agonist activity | agonist activity at S1P receptors (S1P receptors): significant agonist activity

CCCCCCc1cccc(NC(=O)[C@H](N)COP(=O)(O)O)c1.O=C(O)C(F)(F)F [VPC23031]
activity at the S1P3 receptor (inverse agonism/antagonism or agonism) (hS1P3): inverse agonists | activity at the S1P2 receptor (hS1P2): failed to show significant activity; also recorded: inactive
